What was measured:
Details in all cases: 72 h
[1] = system: HepG2; test: drug sensitivity score (DSS) for viability; higher = more toxic; extreme values may be limits of the assay
[2] = system: Calu-3; test: as above
[3] = system: U2OS; test: as above
[4] = system: Caco-2; test: as above
[5] = system: Vero E6; test: as above
[6] = system: HepG2; test: cell viability relative to DMSO; higher = less toxic
[7] = system: Calu-3; test: as above
[8] = system: U2OS; test: as above
[9] = system: Caco-2; test: as above
[10] = system: Vero E6; test: as above
[11] = system: HepG2; test: relative viability EC50 (midpoint between 100% and the lowest measured viability); higher = less toxic
[12] = system: Calu-3; test: as above
[13] = system: U2OS; test: as above
[14] = system: Caco-2; test: as above
[15] = system: Vero E6; test: as above

| SMILES | drug sensitivity score [1] | drug sensitivity score [2] | drug sensitivity score [3] | drug sensitivity score [4] | drug sensitivity score [5] | cell viability ([6]; 1 nM) [%] | cell viability ([6]; 10 nM) [%] | cell viability ([6]; 100 nM) [%] | cell viability ([6]; 1000 nM) [%] | cell viability ([6]; 10000 nM) [%] | cell viability ([7]; 1 nM) [%] | cell viability ([7]; 10 nM) [%] | cell viability ([7]; 100 nM) [%] | cell viability ([7]; 1000 nM) [%] | cell viability ([7]; 10000 nM) [%] | cell viability ([8]; 1 nM) [%] | cell viability ([8]; 10 nM) [%] | cell viability ([8]; 100 nM) [%] | cell viability ([8]; 1000 nM) [%] | cell viability ([8]; 10000 nM) [%] | cell viability ([9]; 1 nM) [%] | cell viability ([9]; 10 nM) [%] | cell viability ([9]; 100 nM) [%] | cell viability ([9]; 1000 nM) [%] | cell viability ([9]; 10000 nM) [%] | cell viability ([10]; 1 nM) [%] | cell viability ([10]; 10 nM) [%] | cell viability ([10]; 100 nM) [%] | cell viability ([10]; 1000 nM) [%] | cell viability ([10]; 10000 nM) [%] | relative viability EC50 [11] [µM] | relative viability EC50 [12] [µM] | relative viability EC50 [13] [µM] | relative viability EC50 [14] [µM] | relative viability EC50 [15] [µM] |
| --- | --- | --- | --- | --- | --- | --- | --- | --- | --- | --- | --- | --- | --- | --- | --- | --- | --- | --- | --- | --- | --- | --- | --- | --- | --- | --- | --- | --- | --- | --- | --- | --- | --- | --- | --- |
| Cc1ccc2c(Cl)cc(Cl)c(O)c2n1 [chlorquinaldol] | 0 | 0 | 0 | 0 | 0 | 89.3 | 95.5 | 99.1 | 84.4 | 108 | 92.4 | 99.9 | 84.2 | 86.9 | 108 | 96.8 | 102 | 97.8 | 102 | 100 | 107 | 91.3 | 96.7 | 91.4 | 103 | 93.3 | 88.9 | 99.2 | 86.6 | 103 | > 10 | > 10 | > 10 | > 10 | > 10 |
| COc1ccc([C@]2(C#N)CC[C@@H](C(=O)O)CC2)cc1OC1CCCC1 [cilomilast] | 0 | 0.3 | 0 | 0 | 0 | 89.4 | 93.6 | 98.3 | 97.2 | 104 | 97.8 | 112 | 102 | 88.9 | 95.9 | 103 | 97.4 | 99.7 | 100 | 100 | 98.3 | 91.3 | 106 | 106 | 100 | 88.2 | 98.7 | 89.8 | 95.9 | 97.9 | > 10 | > 10 | > 10 | > 10 | > 10 |
| CCCCOc1cc(C(=O)NCCN(CC)CC)c2ccccc2n1 [cinchocaine] | 0.1 | 0 | 0 | 0.3 | 0 | 97.2 | 107 | 102 | 94.7 | 89.2 | 96.6 | 94.4 | 97.4 | 94.3 | 92.3 | 100 | 98.2 | 101 | 98.1 | 101 | 99.9 | 95 | 103 | 94.2 | 88.1 | 103 | 104 | 97.8 | 103 | 94.1 | > 10 | > 10 | > 10 | > 10 | > 10 |
| CN(CCOP(=O)(O)O)C(=N)N [creatinol-phosphate] | 0 | 0 | 0 | 0 | 0 | 88.7 | 94.6 | 101 | 105 | 92.4 | 104 | 94.2 | 105 | 92.8 | 98.5 | 92.5 | 95.6 | 94.7 | 93.3 | 93.4 | 102 | 99.5 | 93.6 | 101 | 90.7 | 103 | 97.8 | 98.4 | 104 | 97.8 | > 10 | > 10 | > 10 | > 10 | > 10 |
| C[C@H]1COC2=C1C(=O)C(=O)c1c2ccc2c1CCCC2(C)C [cryptotanshinone] | 0 | 0 | 0 | 0.1 | 0 | 97.3 | 93.3 | 97.2 | 98.9 | 98 | 111 | 111 | 99.1 | 107 | 108 | 101 | 103 | 100 | 101 | 94.4 | 97.2 | 93 | 98.1 | 102 | 85.4 | 95 | 102 | 103 | 98.5 | 100 | > 10 | > 10 | > 10 | > 10 | > 10 |
| NS(=O)(=O)c1cc2c(cc1Cl)NC(CC1CCCC1)NS2(=O)=O (stereo not given) [cyclopenthiazide] | 0 | 0 | 0 | 0 | 0 | 111 | 103 | 101 | 99.1 | 102 | 96.8 | 105 | 97.6 | 97.7 | 96.4 | 100 | 104 | 98.8 | 107 | 96.6 | 102 | 106 | 90.4 | 98.6 | 90.4 | 102 | 91 | 98.9 | 94.9 | 99.9 | > 10 | > 10 | > 10 | > 10 | > 10 |
| Cc1c(F)cccc1NC(=O)Nc1ccc(Cl)c(S(=O)(=O)[C@H]2CCCNC2)c1O [danirixin] | 0 | 0 | 0 | 0 | 0 | 94.8 | 93.1 | 103 | 94.7 | 106 | 84.6 | 88.3 | 91.8 | 93.1 | 95.6 | 99 | 104 | 95.4 | 98.8 | 98.8 | 99.3 | 104 | 93.4 | 99.4 | 95.9 | 106 | 106 | 106 | 98.2 | 100 | > 10 | > 10 | > 10 | > 10 | > 10 |
| COc1cc(OC)nc(O[C@H](C(=O)O)C(OC)(c2ccccc2)c2ccccc2)n1 [darusentan] | 0 | 0 | 0 | 0 | 0 | 98.2 | 98.8 | 93.6 | 95.5 | 91.3 | 111 | 93.3 | 99.1 | 101 | 101 | 97.1 | 102 | 91 | 96.9 | 94.6 | 102 | 96.9 | 97.3 | 95.1 | 102 | 96.5 | 98.8 | 97.2 | 92.3 | 98.6 | > 10 | > 10 | > 10 | > 10 | > 10 |
| Cc1c(C(N)=O)cc([N+](=O)[O-])cc1[N+](=O)[O-] [dinitolmide] | 0 | 0 | 0 | 0 | 0 | 104 | 104 | 106 | 99.7 | 102 | 99.4 | 105 | 101 | 100 | 103 | 111 | 105 | 105 | 93.5 | 92.3 | 101 | 97.6 | 102 | 95.1 | 105 | 102 | 101 | 98.8 | 98.3 | 97.4 | > 10 | > 10 | > 10 | > 10 | > 10 |
| Cn1c(=O)c2c(ncn2CC(O)CO)n(C)c1=O (stereo not given) [dyphylline] | 0 | 0 | 0 | 0 | 0 | 102 | 106 | 97.1 | 107 | 104 | 92.7 | 99.6 | 109 | 96.4 | 101 | 107 | 108 | 105 | 98.8 | 110 | 104 | 110 | 104 | 98.9 | 107 | 100 | 102 | 105 | 98.7 | 105 | > 10 | > 10 | > 10 | > 10 | > 10 |
| COC(=O)CCc1ccc(OCC(O)CNC(C)C)cc1 (stereo not given) [esmolol] | 0 | 0 | 0 | 0 | 0 | 110 | 102 | 94.5 | 109 | 96.5 | 111 | 99.8 | 96.9 | 105 | 102 | 101 | 95 | 94.6 | 94.1 | 99 | 102 | 84.8 | 98.5 | 95.5 | 97.8 | 97.2 | 93.1 | 95.5 | 100 | 95.5 | > 10 | > 10 | > 10 | > 10 | > 10 |
| CC(Cc1ccc(O)cc1)NCC(O)c1cc(O)cc(O)c1 (stereo not given) [fenoterol] | 0 | 0 | 0 | 0 | 0 | 84.4 | 92.7 | 94 | 93.8 | 82.9 | 103 | 114 | 105 | 95.9 | 103 | 101 | 95.1 | 96.4 | 98.5 | 98.4 | 124 | 99.3 | 103 | 92.4 | 111 | 97.6 | 108 | 96.7 | 103 | 92.1 | > 10 | > 10 | > 10 | > 10 | > 10 |
| CC(C)C(=O)Oc1ccc(CO)cc1[C@H](CCN(C(C)C)C(C)C)c1ccccc1 [fesoterodine] | 3 | 0 | 0 | 0 | 0 | 101 | 104 | 83.7 | 90.9 | 90.7 | 102 | 97.3 | 90.2 | 100 | 104 | 105 | 95.8 | 98.2 | 99.8 | 100 | 91.6 | 99.1 | 103 | 98.8 | 96.5 | 100 | 99.9 | 99.2 | 104 | 92.6 | > 10 | > 10 | > 10 | > 10 | > 10 |
| O=C(NCC1CCCCN1)c1cc(OCC(F)(F)F)ccc1OCC(F)(F)F (stereo not given) [flecainide] | 0 | 0 | 0 | 0 | 0 | 96.5 | 103 | 93.3 | 94.9 | 106 | 108 | 100 | 97.5 | 101 | 101 | 98.8 | 97.2 | 103 | 100 | 97.6 | 94.1 | 89.9 | 94.5 | 86 | 104 | 90 | 99.6 | 90.1 | 93.8 | 99.1 | > 10 | > 10 | > 10 | > 10 | > 10 |

From the supplement of paper PMC13380429
